Patent US8703698B2, “Compositions and methods for treating atherosclerosis” (The University of Chicago, priority 2003, dated 2014)

B1: GFFSFVHEAFQGAGDMWRAYTDMKEANWKNSDKYFHARGNYDAAQRGPGGVWAAEKISD GREAFQEFFGRGHEDTIADQEANRHGRSGKDPNYYRPPGLPDKY (protein, listed as Mus musculis)
chain: GFFSFVHEAFQGAGDMWRAYTDMKEANWKNSDKYFHARGNYDAAQRGPGGVWAAEKISDGREAFQEFFGRGHEDTIADQEANRHGRSGKDPNYYRPPGLPDKY
notes: full length murine serum amyloid A isoform 2.1 purified from acute phase plasma

Key:
[1] = system: cholesterol ester hydrolase; experiment: Rate of hydrolysis of cholesteryl ester in cholesterol-laden J774 cells (cholesterol ester hydrolase activity); type: cell-based, murine
THP-1 cells = experiment: Cholesterol efflux from cholesterol-laden human THP-1 cells; type: cell-based; details: liposomal formulations; cholesterol-laden THP-1 cells differentiated with phorbol myristate acetate
Procedure: These monocytes were differentiated into macrophages with phorbol myristate acetate (100 nM). In these experiments, cholesterol-laden human THP-1 cells were exposed to liposomal formulations comprising a peptide corresponding to amino acids 1-20 of murine SAA2.1 (SEQ ID NO:1), a peptide corresponding to amino acids 74-103 of murine SAA2.1 (SEQ ID NO:4), a peptide corresponding to amino acids 1-20 of murine SAA1.1 plus an arginine at the N-terminus (SEQ ID NO:7), or a peptide corresponding to amino acids 1-20 of murine SAA2.1 (SEQ ID NO:1) and a peptide corresponding to amino acids 74-103 (SEQ ID NO:4) of murine SAA2.1. Results from these experiments are depicted in FIG. 4. […] Studies were carried out to determine whether murine SAA2.1 increases cholesterol export from a human derived monocytic cell line, THP-1 (obtained from American Type Culture Collection, Manassas, Va.; ATCC#TIB-202). Human monocytes were cultured in T-75 flasks with 30 ml RPMI 1640 medium containing 2 mM L-glutamine, 4.5 g/L glucose, 10 mM HEPES, 1.0 mM […] and supplemented with 0.05 mM 2-mercaptoethanol and 10% fetal bovine serum. Subsequently, five million cells were placed in each well of a 6-well tissue culture plate. The monocytes were differentiated into macrophages by treatment with phorbol myristate acetate (100 nM). THP-1 macrophages were enriched with cholesterol by incubating with red blood cells membrane fragments (175 μg as cholesterol) that had been previously labelled with 0.5 μCi/mL[^3H]-cholesterol at 37° C. for 6 hours in 0.2% bovine serum albumin, followed by an overnight equilibration period. Cells were washed four times with PBS/BSA prior to efflux studies. Cells were then incubated at 37° C. with 2 mL RPMI-BSA containing 5% LPDS and 50 μg/mL of either native HDL, SAA-HDL, liposomes containing 2 μmoles of apoA-I, SAA1.1 or 2.1, or liposomes containing 0.5 μmoles synthetic peptides corresponding to amino acid residues 1-20 (SEQ ID NO:1), 21-50 (SEQ ID NO:2), 51-80 (SEQ ID NO:3) or 74-103 (SEQ ID NO:4) of murine SAA2.1. The efflux media were collected at 0, 1, 2, 4, 8, 16 and 24 hours, centrifuged to remove cell debris, and then used to measure the exported counts. […] A portion of the cells was lysed in 0.1N NaOH to estimate both the remaining radioactivity and the cellular protein content. Cellular lipids were extracted from the remaining portion of the cells and analyzed by thin-layer chromatography as described by Mendez et al. (J. Clin. Invest. 1994 94:1698-1705) and Oram et al. (Arterioscler. Thromb. 1991 11:403-414). The radioactivity in appropriate spots was measured to determine total cellular cholesterol counts. Efflux of radioactive label to the medium was calculated as the percentage of total counts (cell+medium counts) in each well.

| Molecule | increase in cholesterol ester hydrolase activity ([1]; liposomes containing 0.5 μl synthetic peptide, cholesterol-laden J774 cells, Sandoz 58-035 present, 0 to 24 hours) | cholesterol efflux, time course (FIG. 4) (THP-1 cells) | rate of hydrolysis of [14C]-labeled cholesteryl oleate versus protein-free liposomes ([1]; liposomes containing 0.5 μl synthetic peptide, J774 cells, Sandoz 58-035 present) | cholesterol ester hydrolase activity in intact cholesterol-laden macrophages ([1]; lipoproteins or protein liposomes, tissue culture) |
| --- | --- | --- | --- | --- |
| DTIADQEANRHGRSGKDPNYYRPPGLPDKY [SEQ ID NO:4, synthetic peptide, residues 74-103 of murine SAA2.1] | 3 fold | demonstrated to increase cholesterol efflux | – | – |
| GFFSFVHEAFQGAGDMWRAY [SEQ ID NO:1, synthetic peptide, residues 1-20 of murine SAA2.1] | – | demonstrated to increase cholesterol efflux | no significant differences | – |
| B1 | – | – | – | enhancement of cholesterol ester hydrolase activity |
